Measurements from PMC6964137 (The Oncologist, 2019).
Read-outs that look alike come from different tables or passages of the source.

Key:
[1] = Plasma pharmacokinetics, Cycle 1; assay type: in vivo, patients
[2] = cited from earlier work
[3] = test system: ovarian cancer; details: single agent, irrespective of BRAF or KRAS status; cited from earlier work
[4] = test system: NRAS- and BRAF-mutant melanoma; details: single agent, cited from earlier work
[5] = cited from earlier work; remark: listed apart in the source

Nc1cc(C(F)(F)F)c(-c2cc(N3CCOCC3)nc(N3CCOCC3)n2)cn1 [buparlisib]
AUC ([1]; human, plasma, oral, AUCtau, present study, combination at RP2D): 11700 ng·h/mL
Cmax ([1]; human, plasma, oral, Cmax, present study, combination at RP2D): 764 ng/mL
Reduction of Cmax and AUCtau when combined with binimetinib ([1]; in many patients, versus single-agent data): > 50%
MTD, single agent [2]: 100 mg once daily (q.d.)
AUCtau ([2]; single-agent study): 15,413 ng•hour/mL
Cmax ([2]; single-agent study): 1,098 ng/mL

Cn1cnc2c(F)c(Nc3ccc(Br)cc3Cl)c(C(=O)NOCCO)cc21 [selumetinib]
Response rate [3]: 15%

Cn1cnc2c(F)c(Nc3ccc(Br)cc3F)c(C(=O)NOCCO)cc21 [binimetinib]
AUC ([1]; human, plasma, oral, mean AUCtau, binimetinib 45 mg b.i.d. and buparlisib 80 mg q.d.): 2670 ng·h/mL
Effect of buparlisib on PK of binimetinib ([1]; in vivo): not altered by buparlisib
Objective response rate ([4]; BRAF-mutant melanoma): 6%
Objective response rate ([4]; NRAS-mutant melanoma): 11%
MTD, single agent [5]: 60 mg b.i.d.
mean AUCtau ([5]; single-agent phase I study, same dosing schedule): 1,740 ng•hour/mL
